Assay results published in patent publication EP4273147A1, “SUBSTITUTED SPIROLACTAMS, SALTS THEREOF AND THEIR USE AS HERBICIDALLY ACTIVE SUBSTANCES” (Bayer Aktiengesellschaft, priority 2022, dated 2023).
Values belong to the compound of their own block, whether it stands above or below them.

What was measured:
[1] = tested on: ECHCG; assay: Herbicidal post-emergence action, section E (Table E5); type: in vivo, Echinochloa crus-galli; conditions: application rate 320 g/ha; assessed visually after ca. 3 weeks
Text: (§1) 2 to 3 weeks after sowing, the test plants were sprayed in the single-leaf stage.

[2] = tested on: VIOTR; assay: Herbicidal pre-emergence action, section C (Table C12); type: in vivo, Viola tricolor; conditions: application rate 320 g/ha; visual grading after ca. 3 weeks
[3] = tested on: MATIN; assay: Herbicidal pre-emergence action (Table A4); type: in vivo, Matricaria inodora; conditions: application rate 1280 g/ha; visual grading after ca. 3 weeks
Method in brief: (§2)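 Seeds covered with soil after sowing in sandy loam; every pot carried one monocotyledonous and one dicotyledonous weed species as a double sowing.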

[4] = tested on: ORYZA; assay: Pre-emergence effects on crop plants (Table D3); conditions: crop plant, visual grading after ca. 3 weeks
[5] = tested on: VERPE; assay: Herbicidal pre-emergence action, section C (Table C11); type: in vivo, Veronica persica; conditions: application rate 80 g/ha; visual grading after ca. 3 weeks
[6] = tested on: POAAN; assay: Herbicidal post-emergence action (Table B7); type: in vivo, Poa annua; conditions: application rate 1280 g/ha
Method in brief: (§3)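 Weed seeds sown in sandy loam in pots (one mono- or dicot species per pot), grown in greenhouse; plants treated post-emergence at one-leaf stage, 2–3 weeks after sowing. After ~3 weeks, damage scored visually vs untreated controls (100% = plants dead, 0% = like controls).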

[7] = tested on: VERPE; assay: Herbicidal post-emergence action, section E (Table E9); type: in vivo, Veronica persica; conditions: application rate 320 g/ha; assessed visually after ca. 3 weeks
Text: as §1

[8] = tested on: TRZAS; assay: Post-emergence effects on crop plants (Table F2); type: in vivo, Triticum aestivum; conditions: application rate 320 g/ha, crop plant TRZAS
Text: as §1

[9] = tested on: SETVI; assay: Herbicidal pre-emergence action (Table A5); type: in vivo, Setaria viridis; conditions: application rate 320 g/ha; visual grading after ca. 3 weeks
Method in brief: as §2

[10] = tested on: GLXMA; assay: Pre-emergence effects on crop plants (Table D4); type: in vivo, Glycine max; conditions: crop plant, visual grading after ca. 3 weeks
[11] = tested on: ORYZA; assay: Post-emergence effects on crop plants (Table F3); type: in vivo, Oryza sativa; conditions: application rate 320 g/ha, crop plant ORYZA
Text: as §1

[12] = tested on: STEME; assay: Herbicidal pre-emergence action (Table A6); type: in vivo, Stellaria media; conditions: application rate 320 g/ha; visual grading after ca. 3 weeks
Method in brief: as §2

[13] = tested on: POAAN; assay: Herbicidal pre-emergence action (Table A7); type: in vivo, Poa annua; conditions: application rate 320 g/ha, visual grading after ca. 3 weeks
Method in brief: as §2

[14] = tested on: TRZAS; assay: Pre-emergence effects on crop plants (Table D2); type: in vivo, Triticum aestivum; conditions: crop plant; application rate 320 g/ha; visual grading after ca. 3 weeks
Description: Seeds of mono- and dicotyledonous weed plants and crop plants were sown, in plastic or organic planting pots, in sandy loam and covered with soil. The compounds according to the invention, formulated in the form of wettable powders (WP) or as emulsifiable concentrates (EC), were applied to the surface of the covering soil as aqueous suspension or emulsion, with the addition of 0.5% of an additive, at an application rate of 600 1 of water/ha (converted).
Following treatment, the pots were placed in a greenhouse and kept under optimum growth conditions for the test plants.

[15] = tested on: LOLRI; assay: Herbicidal pre-emergence action (Table A3); type: in vivo, Lolium rigidum; conditions: visual grading after ca. 3 weeks
Method in brief: as §2

[16] = tested on: ALOMY; assay: Herbicidal pre-emergence action, section C (Table C2); type: in vivo, Alopecurus myosuroides; conditions: application rate 320 g/ha; visual grading after ca. 3 weeks
[17] = tested on: BRSNW; assay: Pre-emergence effects on crop plants (Table D5); type: in vivo, Brassica napus; conditions: crop plant, visual grading after ca. 3 weeks
[18] = tested on: ZEAMX; assay: Post-emergence effects on crop plants (Table F1); type: in vivo, Zea mays; conditions: application rate 320 g/ha, crop plant ZEAMX
Text: as §1

[19] = tested on: ZEAMX; assay: Pre-emergence effects on crop plants (Table D1); type: in vivo, Zea mays; conditions: crop plant; application rate 320 g/ha; visual grading after ca. 3 weeks
[20] = tested on: BRSNW; assay: Post-emergence effects on crop plants (Table F5); type: in vivo, Brassica napus; conditions: crop plant BRSNW
Text: as §1

[21] = tested on: SETVI; assay: Herbicidal pre-emergence action, section C (Table C10); type: in vivo, Setaria viridis; conditions: application rate 320 g/ha; visual grading after ca. 3 weeks
Description: Seeds of mono- and dicotyledonous weed plants and crop plants were sown, in plastic or organic planting pots, in sandy loam and covered with soil. The compounds according to the invention, formulated in the form of wettable powders (WP) or as emulsifiable concentrates (EC), were applied to the surface of the covering soil as aqueous suspension or emulsion, with the addition of 0.5% of an additive, at an application rate of 600 1 of water/ha (converted). Following treatment, the pots were placed in a greenhouse and kept under optimum growth conditions for the test plants.

[22] = tested on: ECHCG; assay: Herbicidal pre-emergence action, section C (Table C6); type: in vivo, Echinochloa crus-galli; conditions: application rate 320 g/ha; visual grading after ca. 3 weeks
[23] = tested on: GLXMA; assay: Post-emergence effects on crop plants (Table F4); type: in vivo, Glycine max; conditions: application rate 320 g/ha, crop plant GLXMA
Text: as §1

[24] = tested on: DIGSA; assay: Herbicidal pre-emergence action, section C (Table C5); type: in vivo, Digitaria sanguinalis; conditions: application rate 320 g/ha; visual grading after ca. 3 weeks
[25] = tested on: VIOTR; assay: Herbicidal post-emergence action, section E (Table E10); type: in vivo, Viola tricolor; conditions: application rate 320 g/ha; assessed visually after ca. 3 weeks
Text: as §1

[26] = tested on: ECHCG; assay: Herbicidal pre-emergence action (Table A2); type: in vivo, Echinochloa crus-galli; conditions: visual grading after ca. 3 weeks
Method in brief: as §2

[27] = tested on: VERPE; assay: Herbicidal pre-emergence action (Table A11); type: in vivo, Veronica persica; conditions: application rate 1280 g/ha; visual grading after ca. 3 weeks
Method in brief: as §2

[28] = tested on: KCHSC; assay: Herbicidal pre-emergence action (Table A10); type: in vivo, Kochia scoparia; conditions: application rate 1280 g/ha; visual grading after ca. 3 weeks
Method in brief: as §2

[29] = tested on: SETVI; assay: Herbicidal post-emergence action (Table B8); type: in vivo, Setaria viridis; conditions: application rate 1280 g/ha
Description: (§4) Seeds of mono- and dicotyledonous weed plants were placed in plastic pots in sandy loam soil (doubly sown with in each case one species of mono- or dicotyledonous weed plants per pot), covered with soil and cultivated in a greenhouse under controlled growth conditions. 2 to 3 weeks after sowing, the test plants were treated at the one-leaf stage. […] After the test plants had been kept in the greenhouse under optimum growth conditions for about 3 weeks, the activity of the preparations was rated visually in comparison to untreated controls. For example, 100% activity = the plants have died, 0% activity = like control plants.

[30] = tested on: DIGSA; assay: Herbicidal pre-emergence action (Table A12); type: in vivo, Digitaria sanguinalis; conditions: application rate 320 g/ha; visual grading after ca. 3 weeks
Method in brief: as §2

[31] = tested on: AMARE; assay: Herbicidal pre-emergence action (Table A8); type: in vivo, Amaranthus retroflexus; conditions: application rate 320 g/ha; visual grading after ca. 3 weeks vs untreated controls (100% = plants have died off, 0% = as control plants)
Text: Seeds of mono- and dicotyledonous weed plants were sown in plastic pots (double sowings with one species of mono- and one species of dicotyledonous weed plants per pot), in sandy loam, and covered with soil.

[32] = tested on: AMARE; assay: Herbicidal post-emergence action (Table B11); type: in vivo, Amaranthus retroflexus; conditions: application rate 1280 g/ha
Description: as §4

[33] = tested on: ECHCG; assay: Herbicidal post-emergence action (Table B3); type: in vivo, Echinochloa crus-galli; conditions: Echinochloa crus-galli, post-emergence, 504 h; application rate 1280 g/ha; rated visually after about 3 weeks; read-out: post-emergence activity against ECHCG
Method in brief: as §3

[34] = tested on: ALOMY; assay: Herbicidal pre-emergence action (Table A9); type: in vivo, Alopecurus myosuroides; conditions: application rate 320 g/ha; visual grading after ca. 3 weeks
Method in brief: as §2

[35] = tested on: ABUTH; assay: Herbicidal post-emergence action (Table B1); type: in vivo, Abutilon theophrasti; conditions: application rate 320 g/ha; treated at one-leaf stage; rated visually after about 3 weeks vs untreated controls (100% = plants have died, 0% = like control plants)
Description: as §4

pre-emergence activity against ORYZA ([4]; application rate 80 g/ha): 10%
pre-emergence activity against GLXMA ([10]; application rate 80 g/ha): 20%
pre-emergence activity against TRZAS [14]: 10%
pre-emergence activity against BRSNW ([17]; application rate 80 g/ha): 0%
pre-emergence activity against ZEAMX [19]: 0%
SMILES: O=C1N(Cc2ccc(Cl)s2)CCCC12CCCN(Cc1ccc(Cl)s1)C2=O (racemic) [I-022]
post-emergence activity against ECHCG [1]: 90%
pre-emergence activity against VIOTR [2]: 80%
pre-emergence activity against MATIN [3]: 90%
pre-emergence activity against VERPE [5]: 100%
post-emergence activity against POAAN [6]: 90%
post-emergence activity against VERPE [7]: 80%
post-emergence activity against TRZAS [8]: 10%
pre-emergence activity against SETVI [9]: 100%
post-emergence activity against ORYZA [11]: 10%
pre-emergence activity against STEME [12]: 100%
pre-emergence activity against POAAN [13]: 100%
pre-emergence activity against LOLRI ([15]; application rate 1280 g/ha): 90%
pre-emergence activity against ALOMY [16]: 90%
post-emergence activity against ZEAMX [18]: 0%
post-emergence activity against BRSNW ([20]; application rate 80 g/ha): 20%
pre-emergence activity against SETVI [21]: 100%
pre-emergence activity against ECHCG [22]: 100%

pre-emergence activity against ORYZA ([4]; application rate 320 g/ha): 0%
pre-emergence activity against GLXMA ([10]; application rate 320 g/ha): 0%
pre-emergence activity against TRZAS [14]: 0%
pre-emergence activity against BRSNW ([17]; application rate 320 g/ha): 10%
pre-emergence activity against ZEAMX [19]: 0%
SMILES: O=C1N(Cc2c(F)cccc2Cl)CCCC12CCCN(Cc1c(F)cccc1Cl)C2=O (racemic) [I-063]
post-emergence activity against TRZAS [8]: 0%
pre-emergence activity against SETVI [9]: 100%
post-emergence activity against ORYZA [11]: 0%
post-emergence activity against GLXMA [23]: 10%
pre-emergence activity against STEME [12]: 100%
pre-emergence activity against POAAN [13]: 100%
post-emergence activity against ZEAMX [18]: 10%
pre-emergence activity against DIGSA [24]: 100%
post-emergence activity against BRSNW ([20]; application rate 320 g/ha): 10%
post-emergence activity against VIOTR [25]: 80%
pre-emergence activity against ECHCG ([26]; application rate 1280 g/ha): 100%
pre-emergence activity against SETVI [21]: 100%

SMILES: O=C1N(Cc2c(F)cc(F)cc2F)CCCC12CCCN(Cc1c(F)cc(F)cc1F)C2=O (racemic) [I-198, 2,8-bis[(2,4,6-trifluorophenyl)methyl]-2,8-diazaspiro[5.5]undecane-1,7-dione]
pre-emergence activity against VERPE [27]: 90%
pre-emergence activity against MATIN [3]: 90%
pre-emergence activity against KCHSC [28]: 90%
post-emergence activity against POAAN [6]: 90%
pre-emergence activity against SETVI [9]: 100%
post-emergence activity against SETVI [29]: 90%
pre-emergence activity against DIGSA [30]: 100%
pre-emergence activity against AMARE [31]: 90%
pre-emergence activity against STEME [12]: 90%
post-emergence activity against AMARE [32]: 90%
pest or weed control at 320 g/ha ([13]; Poa annua, pre-emergence, 504 h, read-out: pre-emergence activity against POAAN): 100%
pest or weed control at 320 g/ha ([15]; Lolium rigidum, pre-emergence, 504 h, application rate 320 g/ha, read-out: pre-emergence activity against LOLRI): 100%
pest or weed control at 1280 g/ha [33]: 90%
pre-emergence activity against ECHCG ([26]; application rate 320 g/ha): 100%
pre-emergence activity against ALOMY [34]: 90%

SMILES: COc1ccccc1CN1CCCC2(CCCN(Cc3ccccc3OC)C2=O)C1=O (racemic) [I-071]
post-emergence activity against ABUTH [35]: 90%
pre-emergence activity against POAAN [13]: 100%
pre-emergence activity against ECHCG ([26]; application rate 1280 g/ha): 100%
